In one assay the test system is Past.multo. A 723. Put plainly: agar serial dilution test. It counts as cell-based, Pasteurella multocida. The settings on record: Pasteurella multocida; agar serial dilution, 24 hours, 37° C.; read-out: minimal inhibitory concentration (MIC).
The subject of the next assay is Pseud.aerug. 2396. Put plainly: agar serial dilution test. In kind it is cell-based. Conditions: agar serial dilution, 24 hours, 37° C.; read-out: minimal inhibitory concentration (MIC).
Assay [1] deals with Pseud.aerug. Wyeth A 1058. Put plainly: agar serial dilution test. It counts as cell-based. The settings on record: agar serial dilution, 24 hours, 37° C.; read-out: minimal inhibitory concentration (MIC).
The test system of a further assay is Haem.Suis A 2096. Put plainly: micro serial dilution test. In kind it is cell-based. The settings on record: micro serial dilution (in brackets), about 18 hours, 30° C. or 37° C.; read-out: minimal inhibitory concentration (MIC).
The subject of a further assay is Pseud.aerug. H 10. Put plainly: agar serial dilution test. In kind it is cell-based. The settings on record: agar serial dilution, 24 hours, 37° C.; read-out: minimal inhibitory concentration (MIC).
The test system of another assay is Prot.rettg. A 821. Put plainly: agar serial dilution test. Conditions: Providencia rettgeri, 24 h, agar serial dilution, 24 hours, 37° C.; read-out: minimal inhibitory concentration (MIC). It counts as cell-based, Proteus rettgeri.
The next assay concerns Staph.aureus A 355. Put plainly: micro serial dilution test. In kind it is cell-based, Staphylococcus aureus. The settings on record: Staphylococcus aureus, A355; micro serial dilution (in brackets), about 18 hours, 30° C. or 37° C.; penicillinase-producing strain; read-out: minimal inhibitory concentration (MIC).

Consider `Cc1noc(CC(=O)N[C@@H]2C(=O)N3C(C(=O)O)=C(CSc4nnnn4C)CS[C@H]23)n1` [Compound G, sodium-7[(3-methyl-1,2,4-oxadiazol-5-yl)-acetamido] 3 [1-methyl-tetrazol-5-yl-mercaptomethyl] 3-cephem-4-carboxylate], for which the MIC with Past.multo. A 723 stood at 1 µg/mL; in the assay on Pseud.aerug. 2396, 100 µg/mL; in assay [1], 100 µg/mL; in the assay with Haem.Suis A 2096, 0.23 µg/mL; with Pseud.aerug. H 10, 100 µg/mL; in the assay with Prot.rettg. A 821 it was 0.25 µg/mL. Also, in the assay on Staph.aureus A 355, the MIC amounted to 0.9 µg/mL.

The values above are taken from patent US4160829A, “Antibacterial 1,2,4-oxadiazolylacetamido cephalosporins” (Gist-Brocades N.V., priority 1972, dated 1979).
